What follows are compounds tested against mitochondrial RNA-polymerase (POLRMT) (Mus musculus, UniProt Q8BKF1) (assay: Homogeneous TR-FRET assay for mitochondrial transcription activity). Conditions: homogeneous TR-FRET assay according to Example 4; activity class.
Assay type: biochemical
Excerpt: The TR-FRET assay was basically conducted as described in WO2016/193,231A1, especially as described in example 1 (hereby incorporated by reference). With respect to the background of the mitochondrial transcription it is referred to Falkenberg et al. (2002) and Posse et al. (Posse et al., 2015). The method monitors the activity of mitochondrial RNA-polymerase via detection of the formation of its product, a 407 bp long RNA sequence. Detection of the product is facilitated by hybridization of two DNA-oligonucleotide probes to specific and adjacent sequences within the RNA product sequence. Upon annealing of the probes, two fluorophores that are coupled directly to an acceptor nucleotide probe (ATT0647, 5′) or introduced via a coupled streptavidin interacting with a biotinylated donor nucleotide probe on the other side (Europium cryptate, 3′) are brought into sufficient proximity to serve as a fluorescence-donor-acceptor pair as generally described in Walters and Namchuk (2003). Thus, a FRET signal at 665 nm is generated upon excitation at 340 nm.
Briefly, the protocol described here was applied for screening and activity determination in a low-volume 384-well microtiter plate with non-binding surface. For high-throughput application in the 1536-well microtiter plate format, volumes of the reagent mixes were adjusted, maintaining the volumetric ratio. Proteins POLRMT (NM_172551.3), TFAM (NM_009360.4) and TFB2 M (NM_008249.4) were diluted from their stocks to working concentrations of 150 nM, 1.8 μM and 330 nM respectively, in a dilution buffer containing 100 mM Tris-HCl pH 8.0, 200 mM NaCl, 10% (v/v) glycerole, 2 mM glutathione (GSH), 0.5 mM EDTA and 0.1 mg/mL BSA. Protein dilutions and template DNA, comprising a pUC18 plasmid encoding the mitochondrial light strand promoter, restriction linearized proximal to the promoter 3′-end (pUC-LSP), were mixed at the twofold final assay-concentration in a reaction buffer, containing 10 mM Tris-HCl pH 7.5, 10 mM MgCl2, 40 mM NaCl, 2 mM GSH, 0.01% (w/v) Tween-20 and 0.1 mg/mL BSA.
5 μL of this mix were dispensed, depending on the chosen microtiter plate format, using multi-channel pipettes or a Multidrop® dispenser (Thermo Fisher Scientific, Waltham Mass.) into the wells of a microtiter plate and incubated at room temperature (RT) for 10 min. Chemical compounds under scrutiny in the assay were applied using contact-free acoustic droplet-dispensing (Echo520® Labcyte Inc., Sunnyvale Calif.) from 10 mM compound stocks in 100% DMSO, to a final concentration of 10 μM or in serial dilution series of the required concentration range. Equal amounts of DMSO without any compound were added to positive control samples, followed by an incubation step at RT for 10 min.
The enzymatic reaction was started by the addition of 5 μL of a mix of […] in reaction buffer to a final concentration of 500 μM each. No nucleotide mix was added to negative control samples. The content of the wells was mixed using a VarioTeleshaker™ (Thermo Fisher Scientific, Waltham Mass.) at 1,500 rpm for 45 sec after which the microtiter plate was centrifuged at 500×g for 1 min. The samples were incubated for 2 h at RT with humidity control to avoid evaporation. The detection reagents were prepared in a buffer that was composed, such that the enzymatic reaction was terminated due to chelating of Mg-ions and increased ionic strength, containing 50 mM Tris-HCl pH 7.5, 700 mM NaCl, 20 mM EDTA, and 0.01% (w/v) Tween-20. Importantly Eu-cryptate-coupled streptavidin had to be pre-incubated with a 100-fold molar excess of a random sequence oligonucleotide for 10 min at RT in the dark to block unspecific binding of single stranded RNA to the protein. Subsequently, the blocked streptavidin(—Eu) was mixed with the DNA-probes on ice and kept away from light until use. […]

mitochondrial RNA-polymerase (POLRMT), sequence (Q8BKF1 42-1207): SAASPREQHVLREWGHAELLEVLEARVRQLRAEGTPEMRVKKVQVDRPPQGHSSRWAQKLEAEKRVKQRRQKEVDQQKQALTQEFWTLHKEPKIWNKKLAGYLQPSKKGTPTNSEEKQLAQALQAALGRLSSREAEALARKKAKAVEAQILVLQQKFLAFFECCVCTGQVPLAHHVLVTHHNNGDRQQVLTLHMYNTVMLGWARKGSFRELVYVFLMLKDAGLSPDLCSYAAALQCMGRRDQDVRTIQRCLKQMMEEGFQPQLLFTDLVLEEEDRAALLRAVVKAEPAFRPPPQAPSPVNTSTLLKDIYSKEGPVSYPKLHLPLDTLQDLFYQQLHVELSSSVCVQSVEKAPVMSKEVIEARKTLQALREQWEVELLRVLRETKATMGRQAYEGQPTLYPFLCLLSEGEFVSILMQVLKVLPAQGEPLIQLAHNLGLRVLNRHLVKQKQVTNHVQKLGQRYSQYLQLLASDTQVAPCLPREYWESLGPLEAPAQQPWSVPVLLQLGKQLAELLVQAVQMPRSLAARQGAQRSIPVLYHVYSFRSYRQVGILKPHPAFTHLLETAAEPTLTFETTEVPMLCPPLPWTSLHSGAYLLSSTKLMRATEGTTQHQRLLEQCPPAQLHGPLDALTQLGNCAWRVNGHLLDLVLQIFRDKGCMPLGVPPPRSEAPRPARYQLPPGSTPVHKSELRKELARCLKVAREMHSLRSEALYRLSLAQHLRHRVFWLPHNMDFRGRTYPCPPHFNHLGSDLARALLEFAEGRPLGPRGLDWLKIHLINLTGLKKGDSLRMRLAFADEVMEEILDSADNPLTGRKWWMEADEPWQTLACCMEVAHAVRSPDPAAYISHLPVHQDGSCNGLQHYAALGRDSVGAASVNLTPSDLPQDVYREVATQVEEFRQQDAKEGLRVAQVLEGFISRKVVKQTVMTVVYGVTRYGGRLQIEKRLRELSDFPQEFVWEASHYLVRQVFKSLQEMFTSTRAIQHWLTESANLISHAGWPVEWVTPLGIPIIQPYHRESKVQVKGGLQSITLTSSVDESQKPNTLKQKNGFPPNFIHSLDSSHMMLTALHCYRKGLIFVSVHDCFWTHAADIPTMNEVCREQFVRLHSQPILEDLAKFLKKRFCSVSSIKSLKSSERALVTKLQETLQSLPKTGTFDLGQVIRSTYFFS

IC50 [nM] | SMILES
100 to 1000 | CC(Oc1ccc2c(-c3ccccc3Cl)cc(=O)oc2c1)C(=O)O (stereo not shown) [Compound 96, 2-[4-(2-chlorophenyl)-2-oxo-chromen-7-yl]oxypropanoic acid]
100 to 1000 | CC(Oc1ccc2c(-c3ccc(F)cc3Cl)cc(=O)oc2c1)C(=O)O (stereo not shown) [Compound 99, 2-((4-(2-chloro-4-fluorophenyl)-2-oxo-2H-chromen-7-yl)oxy)propanoic acid]
< 20 | CC(Oc1ccc2c(-c3cccc(F)c3Cl)cc(=O)oc2c1)C(=O)N1CCC[C@H](C(=O)O)C1 (stereo partly drawn) [Compound 50, (3S)-1-[2-[4-(2-chloro-3-fluoro-phenyl)-2-oxo-chromen-7-yl]oxypropanoyl]piperidine-3-carboxylic acid]
100 to 1000 | COC(=O)c1cncc(NC(=O)[C@@H](C)Oc2ccc3c(-c4ccc(F)cc4Cl)cc(=O)oc3c2)c1 [Compound 143, methyl 5-[[(2R)-2-[4-(2-chloro-4-fluoro-phenyl)-2-oxo-chromen-7-yl]oxypropanoyl]amino]pyridine-3-carboxylate]
20 to 100 | C[C@@H](Oc1ccc2c(-c3ccc(F)cc3Cl)cc(=O)oc2c1)C(=O)N1CCC(C(=O)O)CC1 [Compound 131, 1-[(2R)-2-[4-(2-chloro-4-fluoro-phenyl)-2-oxo-chromen-7-yl]oxypropanoyl]piperidine-4-carboxylic acid]
20 to 100 | CCOC(=O)C(C)Oc1ccc2c(-c3cccc(F)c3Cl)cc(=O)oc2c1 (stereo not shown) [Compound 57, ethyl 2-[4-(2-chloro-3-fluoro-phenyl)-2-oxo-chromen-7-yl]oxypropanoate]
< 20 | CC(Oc1ccc2c(-c3cccc(F)c3Cl)cc(=O)oc2c1)C(=O)N1CCCC(S(N)(=O)=O)C1 (stereo not shown) [Compound 52, 1-[2-[4-(2-chloro-3-fluoro-phenyl)-2-oxo-chromen-7-yl]oxypropanoyl]piperidine-3-sulfonamide]
1000 to 5000 | CCOC(=O)C(C)Oc1ccc2c(-c3c(F)cccc3F)cc(=O)oc2c1 (stereo not shown) [Compound 176, ethyl 2-[4-(2,6-difluorophenyl)-2-oxo-chromen-7-yl]oxypropanoate]
< 20 | CC(Oc1ccc2c(-c3ccccc3Cl)cc(=O)oc2c1)C(=O)N1CCC[C@@H](C(=O)O)C1 (stereo partly drawn) [Compound 46, (3R)-1-[2-[4-(2-chlorophenyl)-2-oxo-chromen-7-yl]oxypropanoyl]piperidine-3-carboxylic acid]
20 to 100 | CC(Oc1ccc2c(-c3cccc(F)c3Cl)cc(=O)oc2c1)C(=O)O (stereo not shown) [Compound 94, 2-[4-(2-chloro-3-fluoro-phenyl)-2-oxo-chromen-7-yl]oxypropanoic acid]
< 20 | Cc1ccccc1-c1cc(=O)oc2cc(OC(C)C(=O)N3CCCC(S(=O)(=O)O)C3)ccc12 (stereo not shown) [Compound 10, 1-[2-[4-(o-tolyl)-2-oxo-chromen-7-yl]oxypropanoyl]piperidine-3-sulfonic acid]
< 20 | COC(=O)C[C@H]1CCCN(C(=O)[C@@H](C)Oc2ccc3c(-c4ccccc4Cl)cc(=O)oc3c2)C1 [Compound 101, methyl 2-[(3R)-1-[(2R)-2-[4-(2-chlorophenyl)-2-oxo-chromen-7-yl]oxypropanoyl]-3-piperidyl]acetate]
< 20 | Cc1ccccc1-c1cc(=O)oc2cc(O[C@H](C)C(=O)N3CCC[C@H](C#N)C3)ccc12 [Compound 32, (3S)-1-[(2R)-2-[4-(o-tolyl)-2-oxo-chromen-7-yl]oxypropanoyl]piperidine-3-carbonitrile]
< 20 | C[C@@H](Oc1ccc2c(-c3ccc(F)cc3Cl)cc(=O)oc2c1)C(=O)Nc1ccnc(C(=O)O)c1 [Compound 160, 4-[[(2R)-2-[4-(2-chloro-4-fluoro-phenyl)-2-oxo-chromen-7-yl]oxypropanoyl]amino]pyridine-2-carboxylic acid]
< 20 | Cc1ccccc1-c1cc(=O)oc2cc(OC(C)C(=O)N3CCCC(C#N)C3)ccc12 (stereo not shown) [Compound 41, 1-[2-[4-(o-tolyl)-2-oxo-chromen-7-yl]oxypropanoyl]piperidine-3-carbonitrile]
< 20 | CCOC(=O)[C@H]1CCCN(C(=O)C(C)Oc2ccc3c(-c4ccccc4Cl)cc(=O)oc3c2)C1 (stereo partly drawn) [Compound 16, ethyl (3S)-1-[2-[4-(2-chlorophenyl)-2-oxo-chromen-7-yl]oxypropanoyl]piperidine-3-carboxylate]
20 to 100 | COC(=O)C[C@@H]1CCN(C(=O)[C@@H](C)Oc2ccc3c(-c4ccc(F)cc4Cl)cc(=O)oc3c2)C1 [Compound 144, methyl 2-[(3S)-1-[(2R)-2-[4-(2-chloro-4-fluoro-phenyl)-2-oxo-chromen-7-yl]oxypropanoyl]pyrrolidin-3-yl]acetate]
20 to 100 | CCOC(=O)C1(C)CCCN(C(=O)C(C)Oc2ccc3c(-c4ccccc4C)cc(=O)oc3c2)C1 (stereo not shown) [Compound 88, ethyl 3-methyl-1-[2-[4-(o-tolyl)-2-oxo-chromen-7-yl]oxypropanoyl]piperidine-3-carboxylate]
20 to 100 | CCOC(=O)CC1CCCN(C(=O)C(C)Oc2ccc3c(-c4ccccc4C)cc(=O)oc3c2)C1 (stereo not shown) [Compound 87, ethyl 2-[1-[2-[4-(o-tolyl)-2-oxo-chromen-7-yl]oxypropanoyl]-3-piperidyl]acetate]
100 to 1000 | CC(Oc1ccc2c(-c3ccccc3Cl)cc(=O)oc2n1)C(=O)N1CCC[C@H](C(=O)OC(C)(C)C)C1 (mixture of isomers) [Compound 171, tert-butyl rac-(3S)-1-[2-[4-(2-chlorophenyl)-2-oxo-pyrano[2,3-b]pyridin-7-yl]oxypropanoyl]piperidine-3-carboxylate]
< 20 | C[C@@H](Oc1ccc2c(-c3ccccc3Cl)cc(=O)oc2c1)C(=O)N(C)C [Compound 45, (2R)-2-[4-(2-chlorophenyl)-2-oxo-chromen-7-yl]oxy-N,N-dimethyl-propanamide]
20 to 100 | Cc1ccccc1-c1cc(=O)oc2cc(OC(C)C(=O)N3CCCC(CC(=O)O)C3)ccc12 (stereo not shown) [Compound 72, 2-[1-[2-[4-(o-tolyl)-2-oxo-chromen-7-yl]oxypropanoyl]-3-piperidyl]acetic acid]
20 to 100 | CCOC(=O)[C@H]1CCCN(C(=O)C(CC)Oc2ccc3c(-c4ccccc4Cl)cc(=O)oc3c2)C1 (stereo partly drawn) [Compound 109, ethyl (3S)-1-[2-[4-(2-chlorophenyl)-2-oxo-chromen-7-yl]oxybutanoyl]piperidine-3-carboxylate]
100 to 1000 | CC(C)(Oc1ccc2c(-c3ccccc3Cl)cc(=O)oc2c1)C(=O)O [Compound 112, 2-[4-(2-chlorophenyl)-2-oxo-chromen-7-yl]oxy-2-methyl-propanoic acid]
< 20 | COC(=O)C1CCCN(C(=O)C(C)Oc2ccc3c(-c4ccccc4Cl)cc(=O)oc3c2)C1 (stereo not shown) [Compound 7, methyl 1-[2-[4-(2-chlorophenyl)-2-oxo-chromen-7-yl]oxypropanoyl]piperidine-3-carboxylate]
< 20 | CC(Oc1ccc2c(-c3ccccc3Cl)cc(=O)oc2c1)C(=O)N1CCCC(C#N)C1 (stereo not shown) [Compound 48, 1-[2-[4-(2-chlorophenyl)-2-oxo-chromen-7-yl]oxypropanoyl]piperidine-3-carbonitrile]
20 to 100 | C[C@@H](Oc1ccc2c(-c3ccc(F)cc3Cl)cc(=O)oc2c1)C(=O)N1CCN[C@H](C(=O)O)C1 [Compound 138, (2S)-4-[(2R)-2-[4-(2-chloro-4-fluoro-phenyl)-2-oxo-chromen-7-yl]oxypropanoyl]piperazine-2-carboxylic acid]
100 to 1000 | COC(=O)[C@@H]1CN(C(=O)[C@@H](C)Oc2ccc3c(-c4ccc(F)cc4Cl)cc(=O)oc3c2)CCN1 [Compound 135, methyl (2S)-4-[(2R)-2-[4-(2-chloro-4-fluoro-phenyl)-2-oxo-chromen-7-yl]oxypropanoyl]piperazine-2-carboxylate]
